Eleven compounds from patent publication US4784955A, “Immunogen conjugates and the use thereof in a dihydropyridine assay” (Miles Inc., priority 1986, dated 1988) can be followed below.

Like-named read-outs stand apart in the source and are kept apart here.

Experiment [1] has as its system New Zealand white rabbits. The settings on record: immunized rabbits.
Description: In order to raise antibodies against the 1,4-hydropyridines, a bovine serum albumin-nifedipine iothiocyanate immunogen conjugate was used directly for immunization or was cross-linked with 0.04% glutaraldehyde for eight hours at room temperature prior to immunization of rabbits. In either case, the immunogen conjugate was emulsified in an equal volume of Freund's complete adjuvant.
New Zealand white rabbits were bled to obtain pre-immune sera and were then immunized intramuscularly and intradermally at multiple sites along the back and legs. Rabbits received 0.5 milligram (mg) of bovine serum albumin-nifedipine isothiocyanate immunogen conjugate in Freund's complete adjuvant on day 0 followed by 0.5 mg insults in Freund's incomplete adjuvant every 2-3 weeks. Rabbits were bled after their third immunization every two weeks. Blood was withdrawn from the ear vein, allowed to clot overnight at 4° C., and serum was isolated by centrifugation. In order to reduce the antibodies produced to bovine serum albumin, subsequent immunizations were carried out with keyhole limpet hemocyanin-nifedipine isothiocyanate immunogen conjugates. […]
The subject of experiment [2] is polyclonal antibodies prepared against the immunogen conjugates. Kind of experiment: Cross-reactivity with polyclonal antibodies prepared against the immunogen conjugates. The format is binding.
Experiment [3] relates to monoclonal antibody XIIIE82 /H8. The experiment is described as follows: Binding of radioactive Ca2+ channel blockers to monoclonal antibody XIIIE82 /H8-Sepharose 6MB beads. As to conditions: for ability to bind to monoclonal antibody XIIIE82 /H8-Sepharose 6MB beads (in words): 1.0 nM concentration; for CPM Bound / fmoles of Ca2+ channel blocker specifically bound per μg of monoclonal antibody XIIIE82 /H8: [3H]calcium channel blocker 1.0 nM. On the set-up: species or system mouse. On the procedure:
Various radioactive Ca^2+ channel blockers at a 1.0 nM concentration were tested for their ability to bind to monoclonal antibody XIIIE82 /H8-Sepharose 6MB beads.

The test system of experiment [4] is 1,4-dihydropyridine-specific antibodies. The experiment is described as follows: 1,4-Dihydropyridine radioimmunoassay (dextran-coated charcoal separation), nitrendipine standard curve. The format is binding. The settings on record: 20 pM [3H]nitrendipine; for % B/Bo: 60 min. Here is the method:
After a 1 hour incubation in the dark at room temperature, the assay tubes were transferred to an ice water bath for 10 min. […] After an additional 12 minutes in the ice bath, the assay tubes were centrifuged for 15 minutes at 850×g in a Beckman TJ-6 centrifuge. A 0.80 ml sample of the clear supernatant was then added to 10 ml of liquid scintillation fluid and counted in a Beckman LS8100 liquid scintillation counter. […] An alternate procedure for the RIA on human plasma samples involves the dilutions of standards in normal pooled human plasma (rather than in bovine serum albumin in saline, as described above) and the use of 0.2 ml aliquots of standard or human plasma samples.

Experiment [5] has as its system monoclonal antibody XH42 /G1.
Experiment [6] addresses XH42 /Gl monoclonal antibody. The experiment is described as follows: Competitive binding assay according to the method of Muller, XH42 /Gl. Details: species or system mouse. The settings on record: [3H]nitrendipine-XH42 /Gl monoclonal antibody complex; read-out: average apparent dissociation constant (kd).
Protocol: (§1) The affinity of the monoclonal antibodies of the present invention for [^3 H]nitrendipine was determined using a competitive binding assay according to the method of Muller (Muller, R., Methods in Enzylmology, 92, 589-601, 1983).
Experiment [7] concerns the target XIIIE82 /H8-monoclonal antibody. Kind of experiment: Competitive binding assay according to the method of Muller, XIIIE82 /H8. Details: species or system mouse. As to conditions: [3H]nitrendipine-XIIIE82 /H8-monoclonal antibody complex; read-out: average apparent dissociation constant (Kd).
Protocol: as §1
The subject of experiment [8] is monoclonal antibody XIIIE82 /H8. The experiment is described as follows: Nifedipine radioimmunoassay using monoclonal antibody XIIIE82 /H8-Sepharose 6MB beads. The settings on record: 100 pM [3H]nitrendipine.
Setting [9] is: nitrendipine standard 18.0 picograms/ml in final assay mixture.
The mark [10] stands for this setting: nitrendipine standard 36.0 picograms/ml.
Where [11] appears, read: nitrendipine standard 72.0 picograms/ml.
Where [12] appears, read: nitrendipine standard 180.0 picograms/ml.
Where [13] appears, read: nitrendipine standard 360.0 picograms/ml.
Where [14] appears, read: nitrendipine standard 720.0 picograms/ml.
[15] abbreviates: nitrendipine standard 1800.0 picograms/ml.
Setting [16] is: nitrendipine standard 0.4 nanograms/ml in final assay mixture.
[17] abbreviates: nitrendipine standard 1.1 nanograms/ml.
The mark [18] stands for this setting: nitrendipine standard 1.8 nanograms/ml.
Setting [19] is: nitrendipine standard 3.7 nanograms/ml.
Where [20] appears, read: nitrendipine standard 11.0 nanograms/ml.
[21] abbreviates: nitrendipine standard 18.3 nanograms/ml.
Where [22] appears, read: nitrendipine standard 37.4 nanograms/ml.
The mark [23] stands for this setting: nifedipine standard 3.7 nanograms/ml in final assay mixture.
[24] abbreviates: nifedipine standard 11.2 nanograms/ml.
Setting [25] is: nifedipine standard 18.7 nanograms/ml.
The mark [26] stands for this setting: nifedipine standard 37.3 nanograms/ml.
Setting [27] is: nifedipine standard 112.0 nanograms/ml.
[28] abbreviates: nifedipine standard 186.7 nanograms/ml.
The mark [29] stands for this setting: nifedipine standard 373.4 nanograms/ml.
The mark [30] stands for this setting: nifedipine standard 1866.8 nanograms/ml.

Turning to Keyhole limpet hemocyanin, in experiment [1], the “time to antibody response” value was found to be 4 weeks and the “titer of antiserum of 1,4-dihydropyridine-specific antibodies” value is “highest titer”.

For `COc1ccc([C@@H]2Sc3ccccc3N(CCN(C)C)C(=O)[C@@H]2OC(C)=O)cc1` [diltiazem], the “cross-reaction with the antibodies” value in experiment [2] is “do not cross-react”.

With `COC(=O)C1=C(C)NC(C)=C(C(=O)OC(C)C)C1c1cccc2nonc12` (single isomer, unassigned) [[^3 H]PN200-110], in experiment [3], the “ability to bind to monoclonal antibody XIIIE82 /H8-Sepharose 6MB beads (in words)” value (from here on “ability to bind”) is “specifically bind”, the “CPM Bound” value came out at 9419 CPM and the “fmoles of Ca2+ channel blocker specifically bound per μg of monoclonal antibody XIIIE82 /H8” value was determined as 4.8 fmol/µg.

Take `COCCOC(=O)C1=C(C)NC(C)=C(C(=O)OC(C)C)C1c1cccc([N+](=O)[O-])c1` (centres unmarked) [[^3 H]Nimodipine]: in experiment [3], the “ability to bind” value is given as “specifically bind”, the “CPM Bound” value is 57439 CPM and the “fmoles of Ca2+ channel blocker specifically bound per μg of monoclonal antibody XIIIE82 /H8” value is 20.9 fmol/µg.

For `COc1ccc(CCN(C)CCCC(C#N)(c2ccc(OC)c(OC)c2)C(C)C)cc1OC` (centres unmarked) [verapamil], the “cross-reaction with the antibodies” value in experiment [2] is listed as “do not cross-react”.

Take `COC(=O)C1=C(C)NC(C)=C(C(=O)OC)C1c1ccccc1N=C=S` [[^3 H]Nifedipine-Analog, 1,4-dihydro-2,6-dimethyl-4-(2-isothiocyanatophenyl)-3,5-pyridinedicarboxylic acid dimethyl ester]: in experiment [3], the “ability to bind” value was “specifically bind”, the “CPM Bound” value is on record as 26000 CPM and the “fmoles of Ca2+ channel blocker specifically bound per μg of monoclonal antibody XIIIE82 /H8” value came out at 18.8 fmol/µg.

With `COc1ccc(CCN(C)CCCC(C#N)(c2ccc(OC)c(OC)c2)C(C)C)cc1OC` (centres unmarked) [[^3 H]Verapamil], in experiment [3], the “ability to bind” value was “did not bind”, the “CPM Bound” value is recorded as 234 CPM and the “fmoles of Ca2+ channel blocker specifically bound per μg of monoclonal antibody XIIIE82 /H8” value stood at 0.2 fmol/µg.

As to `COc1ccc([C@@H]2Sc3ccccc3N(CCN(C)C)C(=O)[C@@H]2OC(C)=O)cc1` [[^3 H]Diltiazem], in experiment [3], the “ability to bind” value is listed as “did not bind”, the “CPM Bound” value was determined as 225 CPM and the “fmoles of Ca2+ channel blocker specifically bound per μg of monoclonal antibody XIIIE82 /H8” value came out at 0.1 fmol/µg.

In the case of `CCOC(=O)C1=C(C)NC(C)=C(C(=O)OC)C1c1cccc([N+](=O)[O-])c1` (centres unmarked) [Nitrendipine, 2,6-dimethyl-3-carboethoxy-5-carbomethoxy-4-(3-nitrophenyl)-1,4-dihydropyridine], the “Net CPM” value in experiment [4] (setting [9]) stood at 1492 CPM; in experiment [4] (setting [10]), 1406 CPM; in experiment [4] (setting [11]), 1024 CPM; in experiment [4] (setting [12]) it was 673 CPM; in experiment [4] (setting [13]), 482 CPM; in experiment [4] (setting [14]) it was 346 CPM. In addition, the “Net CPM” value in experiment [4] (setting [15]) came to 225 CPM; in experiment [5] (setting [16]) it was 2043 CPM; in experiment [5] (setting [17]), 1676 CPM; in experiment [5] (setting [18]), 1456 CPM; in experiment [5] (setting [19]), 1149 CPM; in experiment [5] (setting [20]), 717 CPM. In addition, the entries for the “Net CPM” value in experiment [5] (setting [21]) and in experiment [5] (setting [22]) were 535 CPM and 333 CPM, respectively. In addition, the “% B/Bo” value is given as 85.4% in experiment [4] (setting [9]); 80.5% in experiment [4] (setting [10]); 58.6% in experiment [4] (setting [11]); 38.5% in experiment [4] (setting [12]); 27.6% in experiment [4] (setting [13]); 19.8% in experiment [4] (setting [14]). The “% B/Bo” value in experiment [4] (setting [15]) came out at 12.9%; in experiment [5] (setting [16]), 107.1%; in experiment [5] (setting [17]), 87.8%; in experiment [5] (setting [18]), 76.3%; in experiment [5] (setting [19]) it was 60.2%; in experiment [5] (setting [20]) it was 37.6%. The “% B/Bo” value in experiment [5] (setting [21]) is recorded as 28.1%; in experiment [5] (setting [22]) it was 17.5%.

Consider `CCOC(=O)C1=C(C)NC(C)=C(C(=O)OC)C1c1cccc([N+](=O)[O-])c1` (centres unmarked) [[^3 H]Nitrendipine, 2,6-dimethyl-3-carboethoxy-5-carbomethoxy-4-(3-nitrophenyl)-1,4-dihydropyridine], for which the Kd in experiment [6] was 12.5 nM. Moreover, the Kd in experiment [7] is 26 nM. In experiment [3], the “ability to bind” value is “specifically bind”, the “CPM Bound” value was determined as 59103 CPM and the “fmoles of Ca2+ channel blocker specifically bound per μg of monoclonal antibody XIIIE82 /H8” value stood at 33.8 fmol/µg.

For `COC(=O)C1=C(C)NC(C)=C(C(=O)OC)C1c1ccccc1[N+](=O)[O-]` [Nifedipine], the “% B/Bo” value is reported as 102.0% in experiment [8] (setting [23]); 98.2% in experiment [8] (setting [24]); 76.7% in experiment [8] (setting [25]); 50.9% in experiment [8] (setting [26]); 23.4% in experiment [8] (setting [27]); 14.5% in experiment [8] (setting [28]). For the same compound, the results for the “% B/Bo” value in experiment [8] (setting [29]) and in experiment [8] (setting [30]) were 8.6% and 2.4%, respectively. The “Net CPM” value in experiment [8] (setting [23]) is recorded as 8010 CPM; in experiment [8] (setting [24]), 7708 CPM; in experiment [8] (setting [25]), 6027 CPM; in experiment [8] (setting [26]), 3998 CPM; in experiment [8] (setting [27]), 1837 CPM; in experiment [8] (setting [28]) it was 1138 CPM. For the same compound, the “Net CPM” value in experiment [8] (setting [29]) is recorded as 677 CPM; in experiment [8] (setting [30]) it was 190 CPM.
